{
  "source": "patent US7371413B2",
  "about": "“Antioxidant and anti-inflammatory activity of compounds and preparations from African nutmeg seeds” (Rutgers, The State University, priority 2003, dated 2008)",
  "key": {"[1]": {"system": "COX-2 mRNA expression in LPS-induced RAW 264.7 mouse macrophage cells", "experiment": "Inhibition of LPS-induced COX-2 mRNA expression (RT-PCR)", "assay_type": "cell-based", "settings": "for inhibition of COX-2 mRNA expression: 12 hrs; for inhibition of COX-2 mRNA expression (in words): within the concentration ranges assayed", "description": "(§1) Total RNA was isolated using Tri-reagent (Sigma, MO, USA) and 5 μg of this RNA was reverse transcribed to make cDNA using random hexamers and Superscript™ reverse transcriptase (Invitrogen, CA, USA) according to the manufacturer's instructions. The linear range of amplification of iNOS and COX-2 cDNA was determined using gene specific primers from Ambion, Inc. (TX, USA) according to the manufacturer's instructions. Briefly, the optimum amount of 18S primer and competitor for iNOS and COX-2 genes were determined. […] Finally, PCR products from each sample (10 μl) were resolved by electrophoresis in a 2% agarose gel (Fisher Biotech, NJ, USA) and stained with ethidium bromide. An image of the gel was captured after the appropriate exposure time and densitometric analysis was performed using image analysis software (Scion, NIH). For relative quantification, 18S ribosomal RNA was also amplified in same reaction as an internal control. Quantitative analysis of the expression of iNOS and COX-2 mRNA was performed by taking the ratio of the integrated density of each band to that of the 18S RNA band in the same sample."}, "[2]": {"system": "iNOS mRNA expression in LPS-induced RAW 264.7 mouse macrophage cells", "experiment": "Inhibition of LPS-induced iNOS mRNA expression (RT-PCR)", "assay_type": "cell-based", "settings": "12 hrs", "description": "as §1"}, "[3]": {"settings": "compared with α-tocopherol and indomethacin; cited from earlier work"}, "[4]": {"system": "COX-2 protein expression in LPS-induced RAW 264.7 cells", "experiment": "Inhibition of LPS-induced COX-2 protein expression (Western blotting)", "assay_type": "cell-based, mouse", "settings": "treatment for 18 hrs, LPS 0.5 μg/mL", "description": "(§2) To confirm whether the inhibition of NO production by kombo butter, kombo butter acid extract, and purified sargaquinoic acid (KB-1), sargachromenol (KB-2), and sargahydroquinoic acid (KB-3) was due to reduced enzymatic activity or protein expression of inducible nitric oxide synthase (iNOS), we investigated the effect of kombo butter and its constituents on iNOS protein expression by Western blotting. In addition to iNOS, we also studied the effect of kombo butter and its constituents on the expression of cyclooxygenase-2 (COX-2), an enzyme critical to the production of inflammatory prostaglandins and known to be activated in LPS-stimulated macrophages.\n(§3) RAW 264.7 mouse macrophage cells were cultured in Dulbecco's Modified Eagle Medium (DMEM) supplemented with 15% fetal bovine serum (FBS) and an antibiotic and antimycotic mixture. Cell suspensions of 50,000 cells/well were cultured in quadruplicate in flat bottom microtiter plates for 12 hrs. […]\n(§4) An equal amount of protein (40 μg) from each sample was resolved by SDS-polyacrylamide gel electrophoresis. […] Specific bands were detected using enhanced chemiluminescence's detection system (Amersham-Pharmacia Biotech, NJ, USA) and the membrane was exposed to X-ray film. […]"}, "[5]": {"experiment": "DPPH free radical scavenging assay", "assay_type": "biochemical", "settings": "DPPH 1.0×10^−4 M in ethanol, half an hour, 517 nm", "description": "Kombo butter, kombo butter acid extract, and purified sargaquinoic acid (KB-1), sargachromenol (KB-2), and sargahydroquinoic acid (KB-3) were tested for antioxidant activity by both the 2,2′-diphenylpicrylydrazyl (DPPH) and the 2,2′-azinobis-(3-ethylbenzothiazoline-6-sulfonic acid) (ABTS) free radical scavenging assays. A solution of DPPH in ethanol was prepared at a final concentration of 1.0×10^−4 M. Each of the potential actives under investigation was added to the DPPH solution at a number of different concentrations. The solutions were mixed, shaken vigorously and kept in the dark for half an hour. The absorbance of the samples was then measured at 517 nm with an HP Model 8453 spectrophotometer using a blank of ethanol without DPPH. All tests were run in triplicate and averaged. Differences among individual measurements were always less than 5% [26]."}, "[6]": {"system": "TPA-induced mouse ear edema", "settings": "compounds isolated from Roldana barba-johannis; compared with α-tocopherol; cited from earlier work"}, "[7]": {"experiment": "ABTS free radical scavenging assay (TEAC)", "assay_type": "biochemical", "settings": "Trolox equivalent of a 1.0 mM solution", "description": "For the ABTS assay, a solution of ABTS in water was prepared at a final concentration of 7 mM. The ABTS radical cation (ABTS^.+) was produced by adding solid potassium persulfate to the ABTS solution sufficient to yield a final concentration of 2.45 mM potassium persulfate in the mixture and allowing the mixture to stand in the dark at room temperature for 12-16 hours before use. The ABTS^.+ solution was diluted with methanol to an absorbance of 0.70 at 734 nm. Stock solutions of each of the potential actives under investigation were diluted with ethanol to ensure 20-80% inhibition of the radical cation upon introduction of a 10 μL aliquot of the active solution to 1 ml of diluted ABTS^.+ solution. The absorbance was measured beginning exactly 1 min after initial mixing and thereafter up to 6 min. Trolox was used as the standard, and the activity of each of the potential actives was expressed as a Trolox Equivalent Antioxidant Capacity (TEAC) value. The TEAC value represents the millimolar concentration of a Trolox solution having an equivalent antioxidant capacity to a 1.0 mM solution of the potential active under investigation."}, "[8]": {"settings": "in vitro, compared with α-tocopherol; cited from earlier work"}, "[9]": {"system": "iNOS protein expression in LPS-induced RAW 264.7 cells", "experiment": "Inhibition of LPS-induced iNOS protein expression (Western blotting)", "assay_type": "cell-based, mouse", "settings": "treatment for 18 hrs, LPS 0.5 μg/mL", "description": "as §2, §3, §4"}},
  "data": [
    {"compound": "CC(C)=CCC/C(=C/CC/C(C)=C/CC/C(C)=C/Cc1cc(O)cc(C)c1O)C(=O)O", "note": "[Sargahydroquinoic acid, sargahydroquinoic acid]", "values": [
      {"measurement": "inhibition of COX-2 mRNA expression", "setting": "[1]; 25 μM", "result": "~12", "unit": "%"},
      {"measurement": "inhibition of COX-2 mRNA expression", "setting": "[1]; 50 μM", "result": "~19", "unit": "%"},
      {"measurement": "inhibition of iNOS mRNA expression", "setting": "[2]; 25 μM", "result": 31, "unit": "%"},
      {"measurement": "inhibition of iNOS mRNA expression", "setting": "[2]; 50 μM", "result": 74, "unit": "%"}
    ]},
    {"compound": "COc1ccc2c(c1)c(CC(=O)O)c(C)n2C(=O)c1ccc(Cl)cc1", "note": "[indomethacin, reference compound]", "values": [
      {"measurement": "inhibition of COX-2 mRNA expression (in words)", "setting": "[1]", "result": "neither of these compounds effected any inhibition"}
    ]},
    {"compound": "vitamin E [reference compound]", "values": [
      {"measurement": "inhibition of COX-2 mRNA expression (in words)", "setting": "[1]", "result": "neither of these compounds effected any inhibition"}
    ]},
    {"compound": "CC(C)=CCC/C(=C/CC/C(C)=C/CCC1(C)C=Cc2cc(O)cc(C)c2O1)C(=O)O", "note": "(centres unmarked) [Sargachromenol, sargachromenol]", "values": [
      {"measurement": "antioxidant activity (DPPH radical scavenging)", "setting": "[3]", "result": "better than those of either α-tocopherol or indomethacin"},
      {"measurement": "inhibition of COX-2 protein expression", "setting": "[4]", "result": "markedly inhibited"},
      {"measurement": "DPPH free radical scavenging IC50", "setting": "[5]", "result": 17.3, "unit": "µg/mL"},
      {"measurement": "inhibition of COX-2 mRNA expression", "setting": "[1]; 50 μM", "result": 16, "unit": "%"},
      {"measurement": "anti-inflammatory activity", "setting": "[6]", "result": "exceeded that of α-tocopherol"},
      {"measurement": "inhibition of iNOS mRNA expression (in words)", "setting": "[2]; 50 μM", "result": "exhibited inhibitory activity"},
      {"measurement": "TEAC", "setting": "[7]", "result": 0.75, "unit": "mM"}
    ]},
    {"compound": "CC(=CCCC(C)=CCc1cc(O)cc(C)c1O)CCC=C(C)CCC=C(C)C(=O)O", "note": "[kombic acid]", "values": [
      {"measurement": "antioxidant activity with respect to lipid peroxidation", "setting": "[8]", "result": "either met or exceeded that of α-tocopherol"}
    ]},
    {"compound": "CC(C)=CCC/C(=C\\CC/C(C)=C/CC/C(C)=C/CC1=CC(=O)C=C(C)C1=O)C(=O)O", "note": "[Sargaquinoic acid, sargaquinoic acid]", "values": [
      {"measurement": "inhibition of iNOS protein expression", "setting": "[9]", "result": "markedly inhibited"},
      {"measurement": "inhibition of iNOS mRNA expression (in words)", "setting": "[2]; 50 μM", "result": "exhibited inhibitory activity"},
      {"measurement": "TEAC", "setting": "[7]", "result": 0.15, "unit": "mM"}
    ]}
  ]
}
